Assay results from patent US11845740B2, “Glutaminyl cyclase inhibitors and the use thereof in treatment of various diseases” (OBSCHESTVO S OGRANICHENNOI OTVETSTVENNOSTIYU …, priority 2017, dated 2023).
pIC50, pKi: −log10 of the molar value.

Target: recombinant intracellular human glutaminyl cyclase (Homo sapiens (Human), UniProt Q9NXS2)
Experiment: Enzymatic activity of human glutaminyl cyclase in vitro (fluorescent substrate Gln-bNA)
Format: biochemical
Settings: 25° C., 50 μM Gln-bNA, pH 8.0
Experimental: The reaction mixture having a volume of 100-μl has contained 50 μM of fluorogenic substrate; ˜0.2 units of human pyroglutaminyl aminopeptidase (1 unit is defined as an amount hydrolyzing 1 micromole of pGlu-bNA per minute), and an aliquot of the recombinant intracellular human glutaminyl cyclase (gQC) in 50 mM trisaminomethane-HCl and 5% glycerol, a pH is 8.0.
The further course of the reaction was monitored spectrophotometrically (the wavelength of the excitation and emission were 320 and 410 nm). The enzyme activity was determined by an amount of the released 2-naphthyl amide (bNA), calculated from the calibration curve. The IC50 values were calculated using nonlinear regression of “inhibitor concentration”-“enzymatic activity” curve.

recombinant intracellular human glutaminyl cyclase, sequence (Q9NXS2 whole entry): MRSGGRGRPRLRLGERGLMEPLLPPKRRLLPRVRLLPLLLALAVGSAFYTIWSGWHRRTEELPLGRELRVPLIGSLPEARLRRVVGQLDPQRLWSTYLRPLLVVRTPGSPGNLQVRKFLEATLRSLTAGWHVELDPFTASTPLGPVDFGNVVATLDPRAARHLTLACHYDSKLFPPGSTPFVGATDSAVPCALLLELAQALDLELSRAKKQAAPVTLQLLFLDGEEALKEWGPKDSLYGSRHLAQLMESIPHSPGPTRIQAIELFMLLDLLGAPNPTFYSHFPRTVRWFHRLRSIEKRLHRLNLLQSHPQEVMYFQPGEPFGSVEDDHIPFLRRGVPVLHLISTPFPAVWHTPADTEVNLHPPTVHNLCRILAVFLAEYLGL

## O=C(NCCc1cnc[nH]1)NCCc1cnc[nH]1 [Compound III, N,N′-bis[2-(1H-imidazol-4-yl)ethyl]carbamide]
  pIC50: 5.46
  pKi: 5.70
